Measured values published in PubChem BioAssay (NCI).
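Dose response: 5 concentrations. Exposure: 48 h. Format: 96-well plates. Endpoint: linear interpolation; highest concentration if not reached. The concentration for 50% growth inhibition is given as GI50. TGI: concentration producing complete growth inhibition.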

Assays:
Experiment in all cases: NCI-60 cell line screen, 48 h
SN12C renal = system: SN12C renal
DU-145 prostate = system: DU-145 prostate
SF-539 CNS = system: SF-539 CNS
OVCAR-8 ovarian = system: OVCAR-8 ovarian
U251 CNS = system: U251 CNS
KM12 colon = system: KM12 colon
NCI/ADR-RES ovarian = system: NCI/ADR-RES ovarian
K-562 leukemia = system: K-562 leukemia
NCI-H226 lung = system: NCI-H226 lung
M14 melanoma = system: M14 melanoma

SMILES | GI50 (SN12C renal) [µM] | TGI (SN12C renal) [µM] | GI50 (DU-145 prostate) [µM] | TGI (DU-145 prostate) [µM] | GI50 (SF-539 CNS) [µM] | TGI (SF-539 CNS) [µM] | GI50 (OVCAR-8 ovarian) [µM] | TGI (OVCAR-8 ovarian) [µM] | GI50 (U251 CNS) [µM] | TGI (U251 CNS) [µM] | GI50 (KM12 colon) [µM] | TGI (KM12 colon) [µM] | GI50 (NCI/ADR-RES ovarian) [µM] | TGI (NCI/ADR-RES ovarian) [µM] | GI50 (K-562 leukemia) [µM] | TGI (K-562 leukemia) [µM] | GI50 (NCI-H226 lung) [µM] | TGI (NCI-H226 lung) [µM] | GI50 (M14 melanoma) [µM] | TGI (M14 melanoma) [µM]
CNC(=O)c1ccc(-c2cnc3ncc(Cc4ccc5ncccc5c4)n3n2)cc1F | > 100 | > 100 | > 100 | > 100 | 54.1 | > 100 | 52.4 | > 100 | 75.1 | > 100 | > 100 | > 100 | > 100 | > 100 | > 100 | > 100 | 34.6 | > 100 |  | 
CCN(Cc1c(F)cccc1F)c1ccc(CO)c(Cl)c1 | 15.4 | 58.5 | 12.3 | 47 | 20.5 | > 59.2 | 4.15 | 35.8 | 0.195 | 32.5 | 11.4 | 26.8 | 6.86 | 43.2 | 0.209 | 28.2 | 0.0318 | 0.126 | 19.4 | 48.1
COc1cc(-c2cn(C)c(=O)c(C)c2C)cc(OC)c1CN1CC[C@H](N2CCN(c3ccc(N[C@H]4CCC(=O)NC4=O)cc3F)CC2)C(F)(F)C1 | 11.6 | 26.8 | 27.6 | > 100 | 14.4 | 28.6 | 11.2 | 25.7 | 13.6 | 29.6 | 15.1 | 30.2 | 12.9 | 30.5 | 9.44 | > 100 | 13.7 | 29.1 | 12.2 | 27.7
CC(=O)n1c(-c2ccc(Cl)cc2)nc2c(c1=O)C(c1ccc(Cl)cc1)c1sc3c(Cl)cccc3c1O2 (stereo not drawn) | 0.715 | 2.56 | 0.499 | 2.38 | 0.296 | 1.12 | 0.626 | 3.02 | 0.446 | 1.67 | 0.433 | 1.78 | 0.292 | 1.01 | 0.405 | 2.32 | 0.323 | 1.78 | 0.3 | 1.24
CCn1c(-c2nonc2N)nc2ccc(F)cc21 | > 25 | > 25 | > 25 | > 25 | > 25 | > 25 | > 25 | > 25 | > 25 | > 25 | > 25 | > 25 | > 25 | > 25 | > 25 | > 25 | > 25 | > 25 | > 25 | > 25
CCCNCc1cc(C)cc2c1nc(N1CCNCC1)n2Cc1cc(C)c(F)c(C)c1 | 7.57 | 21.6 | 6.15 | 19.6 | 1.79 | 3.59 | 3.9 | 13.8 | 1.84 | 3.58 | 3.08 | 11.7 | 16.1 | 31 | 1.9 | 3.78 | 19.1 | 38.2 | 1.86 | 3.47
